Earlier results, collected in patent publication US20020015745A1, “Process for enhancing immune response in canines using a dietary composition including garlic” (priority 2000, published 2002).

System: human prostate carcinoma LNCaP cells
Conditions: in culture

In the case of `C=CCSSC[C@H](N)C(=O)O` [S-allylmercaptocysteine], the “growth of human prostate carcinoma LNCaP cells” value is given as “reduce the growth”.
